Test: Evaluation of stability in hepatic microsome
Format: in vitro ADME
Conditions: mouse hepatic microsome 0.25 mg/mL, 1 μM compound, 37° C., 30 minutes, NADPH-generating system

percentage of the remaining tested compounds (remaining %): 0%
SMILES: Cc1ccc(-c2nn(C(C)(C)C)c3ncnc(N)c23)cc1 [Compound 4 of Comparative Examples, 1-(tert-butyl)-3-(p-tolyl)pyrazolo[3,4-d]pyrimidin-4-amine]
